Measured values taken from US8759301B2, “Gene fusion targeted therapy” (The Regents of The University of Michigan, priority 2010, dated 2014).
Entries after “also recorded” stand apart in the source; their conditions may differ. Read-outs that look alike come from different tables or passages of the source.

Assays:
AR [1] = target: AR (Homo sapiens, UniProt P10275); settings: VCaP, R1881 treated (10 nM, 16 hr, hormone deprived)
Description: For ERG ChIP, LNCaP, VCaP, RWPE+ERG, and RWPE+GUS cells grown in corresponding regular medium were used.
ChIP samples were prepared for sequencing using the Genomic DNA sample prep kit (Illumina) following manufacturers protocols. ChIP-Sequencing was performed using Illumina Genome Analyzer according to standard manufacturer's procedures. The raw sequencing image data were analyzed by the Illumina analysis pipeline, aligned to the unmasked human reference genome (NCBI v36, hg18) using the ELAND software (Illumina) to generate sequence reads of 25-32 bps.
It was first counted how many uniquely mapped reads are there in each sample and the ratio of the two counts was used as the normalizing factor to bring the total number of useable reads to the same level in both samples. Next each uniquely mapped read was extended directionally to form a 200 bp hypothetical DNA fragment (HDF) in each sample. 200 is assumed to be the average length of size-selected DNA pieces during sample preparation (175-225 bp).
Under the null hypothesis of no enrichment in the stimulated sample versus unstimulated samples, reads from both samples are assumed to land on the genome following the same Poisson distribution (after corrected for the read counts in the unstimulated sample). […] The probability of observing the read difference between two samples in each coverage region was calculated numerically. […]

AR mRNA = assay: Quantitative PCR of AR transcript in VCaP cells; format: cell-based
Description: All PCR experiments were performed in triplicates.

AR protein = assay: Immunoblot of AR protein in VCaP cells; format: cell-based
Description: VCaP cells grown in DMEMglutamax (Invitrogen, Carlsbad, Calif.) supplemented with 10% FBS to 80% confluence. Cells were harvested with or without formaldehyde crosslinking, and nuclei were isolated subsequently. After washing with TBS twice, nuclei were lysed and sonicated in RIPA buffer containing protease inhibitors (Roche applied science, Indianapolis, Ind.). […] Mouse monoclonal anti-AR antibody (AR441) from Labvision (Thermo scientific, Fremont, Calif.) was used for Western experiment.

AR [2] = target: AR (Homo sapiens, UniProt P10275, T878A); settings: for number of AR binding sites: LNCaP R1881-treated
AR (Homo sapiens, UniProt P10275, T878A), sequence (P10275 whole entry T878A): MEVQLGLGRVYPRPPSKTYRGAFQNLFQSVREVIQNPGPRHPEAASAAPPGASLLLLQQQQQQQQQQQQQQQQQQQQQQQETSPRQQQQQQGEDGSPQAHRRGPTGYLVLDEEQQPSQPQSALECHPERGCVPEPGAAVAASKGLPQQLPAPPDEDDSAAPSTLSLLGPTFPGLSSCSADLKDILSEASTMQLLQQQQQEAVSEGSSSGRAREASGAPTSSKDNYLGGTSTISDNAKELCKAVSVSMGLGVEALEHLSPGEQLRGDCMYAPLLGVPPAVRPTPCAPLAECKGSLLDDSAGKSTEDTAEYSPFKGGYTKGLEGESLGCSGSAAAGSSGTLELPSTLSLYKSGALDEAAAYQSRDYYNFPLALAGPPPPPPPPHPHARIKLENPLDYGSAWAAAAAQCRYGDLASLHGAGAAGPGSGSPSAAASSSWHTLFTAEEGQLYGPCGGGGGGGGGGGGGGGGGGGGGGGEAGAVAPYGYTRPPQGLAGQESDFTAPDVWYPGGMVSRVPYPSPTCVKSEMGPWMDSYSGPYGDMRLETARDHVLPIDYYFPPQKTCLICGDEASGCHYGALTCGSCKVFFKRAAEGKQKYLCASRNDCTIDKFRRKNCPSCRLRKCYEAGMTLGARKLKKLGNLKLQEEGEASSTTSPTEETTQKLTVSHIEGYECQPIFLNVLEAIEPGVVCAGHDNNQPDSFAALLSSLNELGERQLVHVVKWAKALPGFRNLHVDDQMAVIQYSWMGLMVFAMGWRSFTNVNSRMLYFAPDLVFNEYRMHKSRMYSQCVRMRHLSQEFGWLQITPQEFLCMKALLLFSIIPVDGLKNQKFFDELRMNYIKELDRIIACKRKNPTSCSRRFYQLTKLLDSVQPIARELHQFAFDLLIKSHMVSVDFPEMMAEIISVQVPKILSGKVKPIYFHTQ

AR (Homo sapiens, UniProt P10275), sequence (P10275 whole entry): as the sequence (P10275 whole entry T878A) above, with A878T counted along it

Compound: C[C@]1(O)CC[C@H]2[C@@H]3CCC4=CC(=O)CCC4=C3C=C[C@@]21C [R1881, methyltrienolone]
- Enriched Peaks, AR ChIP-Seq (AR [1]): 21376
- AR mRNA expression (AR mRNA; VCaP cells): inhibits; also recorded: repression
- repression of AR transcript (AR mRNA; hormone-deprived VCaP, 24 h after treatment, versus vehicle): over 10 folds
- AR protein expression (AR protein): inhibits
- number of AR binding sites (AR [2]; distance to TSS 7 kb): 145
- number of AR binding sites (AR [2]; distance to TSS 8 kb): 148
- number of AR binding sites (AR [2]; distance to TSS 9 kb): 139
- number of AR binding sites (AR [2]; distance to TSS 10 kb): 117
- number of AR binding sites (AR [2]; distance to TSS 11 kb): 120
- number of AR binding sites (AR [2]; distance to TSS 12 kb): 123
- number of AR binding sites (AR [2]; distance to TSS 13 kb): 134
- number of AR binding sites (AR [2]; distance to TSS 14 kb): 126
- number of AR binding sites (AR [2]; distance to TSS 15 kb): 137
- number of AR binding sites (AR [2]; distance to TSS 16 kb): 114
- number of AR binding sites (AR [2]; distance to TSS 17 kb): 109
- number of AR binding sites (AR [2]; distance to TSS 18 kb): 107
- number of AR binding sites (AR [2]; distance to TSS 19 kb): 109
- number of AR binding sites (AR [2]; distance to TSS 20 kb): 97
- number of AR binding sites (AR [2]; distance to TSS 21 kb): 97
- number of AR binding sites (AR [2]; distance to TSS 22 kb): 98
- number of AR binding sites (AR [2]; distance to TSS 23 kb): 100
- number of AR binding sites (AR [2]; distance to TSS 24 kb): 99
- number of AR binding sites (AR [2]; distance to TSS 25 kb): 105
- number of AR binding sites (AR [2]; distance to TSS 26 kb): 105
- number of AR binding sites (AR [2]; distance to TSS 27 kb): 86
- number of AR binding sites (AR [2]; distance to TSS 28 kb): 90
- number of AR binding sites (AR [2]; distance to TSS 29 kb): 76
- number of AR binding sites (AR [2]; distance to TSS 30 kb): 78
- number of AR binding sites (AR [2]; distance to TSS 31 kb): 101
- number of AR binding sites (AR [2]; distance to TSS 32 kb): 86
- number of AR binding sites (AR [2]; distance to TSS 33 kb): 94
- number of AR binding sites (AR [2]; distance to TSS 34 kb): 79
- number of AR binding sites (AR [2]; distance to TSS 35 kb): 68
- number of AR binding sites (AR [2]; distance to TSS 36 kb): 79
- number of AR binding sites (AR [2]; distance to TSS 37 kb): 88
- number of AR binding sites (AR [2]; distance to TSS 38 kb): 72
- number of AR binding sites (AR [2]; distance to TSS 39 kb): 57
- number of AR binding sites (AR [2]; distance to TSS 40 kb): 65
- number of AR binding sites (AR [2]; distance to TSS 41 kb): 76
- number of AR binding sites (AR [2]; distance to TSS 42 kb): 65
- number of AR binding sites (AR [2]; distance to TSS 43 kb): 73
- number of AR binding sites (AR [2]; distance to TSS 44 kb): 58
- number of AR binding sites (AR [2]; distance to TSS 45 kb): 69
- number of AR binding sites (AR [2]; distance to TSS 46 kb): 56
- number of AR binding sites (AR [2]; distance to TSS 47 kb): 53
- number of AR binding sites (AR [2]; distance to TSS 48 kb): 55
- number of AR binding sites (AR [2]; distance to TSS 49 kb): 61
- number of AR binding sites (AR [2]; distance to TSS 50 kb): 77
- number of AR binding sites (AR [2]; distance to TSS 51 kb): 50
- number of AR binding sites (AR [2]; distance to TSS 52 kb): 54
- number of AR binding sites (AR [2]; distance to TSS 53 kb): 61
- number of AR binding sites (AR [2]; distance to TSS 54 kb): 56
- number of AR binding sites (AR [2]; distance to TSS 55 kb): 41
- number of AR binding sites (AR [2]; distance to TSS 56 kb): 55
- number of AR binding sites (AR [2]; distance to TSS 57 kb): 59
- number of AR binding sites (AR [2]; distance to TSS 58 kb): 60
- number of AR binding sites (AR [2]; distance to TSS 59 kb): 58
- number of AR binding sites (AR [2]; distance to TSS 60 kb): 43
- number of AR binding sites (AR [2]; distance to TSS 61 kb): 36
- number of AR binding sites (AR [2]; distance to TSS 62 kb): 49
- number of AR binding sites (AR [2]; distance to TSS 63 kb): 40
- number of AR binding sites (AR [2]; distance to TSS 64 kb): 52
- number of AR binding sites (AR [2]; distance to TSS 65 kb): 50
- number of AR binding sites (AR [2]; distance to TSS 66 kb): 39
- number of AR binding sites (AR [2]; distance to TSS 67 kb): 37
- number of AR binding sites (AR [2]; distance to TSS 68 kb): 47
- number of AR binding sites (AR [2]; distance to TSS 69 kb): 47
- number of AR binding sites (AR [2]; distance to TSS 70 kb): 45
- number of AR binding sites (AR [2]; distance to TSS 71 kb): 43
- number of AR binding sites (AR [2]; distance to TSS 72 kb): 43
- number of AR binding sites (AR [2]; distance to TSS 73 kb): 57
- number of AR binding sites (AR [2]; distance to TSS 74 kb): 37
- number of AR binding sites (AR [2]; distance to TSS 75 kb): 34
- number of AR binding sites (AR [2]; distance to TSS 76 kb): 39
- number of AR binding sites (AR [2]; distance to TSS 77 kb): 48
- number of AR binding sites (AR [2]; distance to TSS 78 kb): 31
- number of AR binding sites (AR [2]; distance to TSS 79 kb): 37
- number of AR binding sites (AR [2]; distance to TSS 80 kb): 36
- number of AR binding sites (AR [2]; distance to TSS 81 kb): 35
- number of AR binding sites (AR [2]; distance to TSS 82 kb): 49
- number of AR binding sites (AR [2]; distance to TSS 83 kb): 39
- number of AR binding sites (AR [2]; distance to TSS 84 kb): 32
- number of AR binding sites (AR [2]; distance to TSS 85 kb): 39
- number of AR binding sites (AR [2]; distance to TSS 86 kb): 40
- number of AR binding sites (AR [2]; distance to TSS 87 kb): 31
- number of AR binding sites (AR [2]; distance to TSS 88 kb): 34
- number of AR binding sites (AR [2]; distance to TSS 89 kb): 33
- number of AR binding sites (AR [2]; distance to TSS 90 kb): 33
- number of AR binding sites (AR [2]; distance to TSS 91 kb): 41
- number of AR binding sites (AR [2]; distance to TSS 92 kb): 28
- number of AR binding sites (AR [2]; distance to TSS 93 kb): 36
- number of AR binding sites (AR [2]; distance to TSS 94 kb): 27
- number of AR binding sites (AR [2]; distance to TSS 95 kb): 28
- number of AR binding sites (AR [2]; distance to TSS 96 kb): 35
- number of AR binding sites (AR [2]; distance to TSS 97 kb): 27
- number of AR binding sites (AR [2]; distance to TSS 98 kb): 27
- number of AR binding sites (AR [2]; distance to TSS 99 kb): 34
- number of AR binding sites (AR [2]; distance to TSS 100 kb): 19
- number of AR binding sites (AR [2]; distance to TSS 101 kb): 24
- number of AR binding sites (AR [2]; distance to TSS 102 kb): 23
- number of AR binding sites (AR [2]; distance to TSS 103 kb): 28
- number of AR binding sites (AR [2]; distance to TSS 104 kb): 30
- number of AR binding sites (AR [2]; distance to TSS 105 kb): 20
- number of AR binding sites (AR [2]; distance to TSS 106 kb): 31
- Enriched Peaks, AR ChIP-Seq (AR [2]; LNCaP, R1881 treated (10 nM, 16 hr, hormone deprived)): 44536
